Structures are written as SMILES. Counter-ions that a name gives are not always drawn.

For the test, the system named is ATGL-KO iPSCs. Nature of the test: High throughput iPSC chemical screening, Oil Red O (ORO) lipid accumulation. Further: test concentration or dose not given here. The format is cell-based, mouse. The conditions noted are these: normalized ORO level vs DMSO-treated cells; compound present during 7 days differentiation, 96-well; negative = decrease in lipid accumulation.
Regarding `O=C(O)[C@H](O)[C@@H](O)[C@H](O[C@@H]1O[C@H](CO)[C@H](O)[C@H](O)[C@H]1O)[C@H](O)CO` [Lactobionic acid], the Z-score is on record as −0.5092.

As for `CC(=O)O[C@H]1C[C@H](O[C@H]2[C@@H](O)C[C@H](O[C@H]3[C@@H](O)C[C@H](O[C@H]4CC[C@@]5(C)[C@H](CC[C@@H]6[C@@H]5C[C@@H](O)[C@]5(C)[C@@H](C7=CC(=O)OC7)CC[C@]65O)C4)O[C@@H]3C)O[C@@H]2C)O[C@H](C)[C@H]1O[C@@H]1O[C@H](CO)[C@@H](O)[C@H](O)[C@H]1O` [Lanatoside C], the Z-score is −1.0291.

Turning to `Cc1c(OCC(F)(F)F)ccnc1C[S+]([O-])c1nc2ccccc2[nH]1` (stereo not drawn) [Lansoprazole], the Z-score is −0.4696.

`CC[C@@H](C(=O)[C@@H](C)[C@@H](O)[C@H](C)CCc1ccc(C)c(O)c1C(=O)O)[C@H]1O[C@](CC)([C@H]2CC[C@](O)(CC)[C@H](C)O2)C[C@@H]1C` [Lasalocid sodium salt]: the Z-score is 9.898.

`Cc1oncc1C(=O)Nc1ccc(C(F)(F)F)cc1` [Leflunomide] gave a Z-score of 1.258.

As for `N#Cc1ccc(C(c2ccc(C#N)cc2)n2cncn2)cc1` [Letrozole], the Z-score is reported as 0.6693.

Turning to `CC1=CC(=O)C2=C(C)CC[C@@H]3[C@H](OC(=O)[C@H]3C)[C@@H]12` [Leucomisine], the Z-score is reported as −0.2458.

Take `c1ccc([C@H]2CN3CCSC3=N2)cc1` [Levamisole hydrochloride]: the Z-score is −0.8539.

The compound `C[C@@H]1CN([C@H]2CC[C@](C#N)(c3ccc(F)cc3)CC2)CC[C@]1(C(=O)O)c1ccccc1` [Levocabastine hydrochloride] came in with a Z-score of 1.078.

In the case of `N[C@@H](Cc1ccc(O)c(O)c1)C(=O)O` [Levodopa], the Z-score was −0.1655.

In the case of `C[C@H](N)[C@H](O)c1ccc(O)c(O)c1` [Levonordefrin], the Z-score was −0.1555.

`CCC(=O)O[C@@](Cc1ccccc1)(c1ccccc1)[C@@H](C)CN(C)C` [Levopropoxyphene napsylate]: the Z-score was −1.0896.

Turning to `CCN(CC)CC(=O)Nc1c(C)cccc1C.Cl` [LidocaOne hydrochloride], the Z-score is given as −0.9429.

On to `Cc1cccc(C)c1NC(=O)CN1CCN(CCCC(c2ccc(F)cc2)c2ccc(F)cc2)CC1` [Lidoflazine], for which the Z-score was 1.42.

The compound `CCC[C@@H]1C[C@@H](C(=O)N[C@@H]([C@H]2O[C@H](SC)[C@H](O)[C@@H](O)[C@H]2O)[C@@H](C)O)N(C)C1` [Lincomycin hydrochloride] returned a Z-score of 0.696.

`N[C@@H](Cc1cc(I)c(Oc2ccc(O)c(I)c2)c(I)c1)C(=O)O` [Liothyronine] registered a Z-score of 0.1954.

With `NCCCC[C@H](N[C@@H](CCc1ccccc1)C(=O)O)C(=O)N1CCC[C@H]1C(=O)O` [Lisinopril], the Z-score was determined as 0.5403.

On to `CCN(CC)C(=O)N[C@H]1C=C2c3cccc4[nH]cc(c34)C[C@H]2N(C)C1` [Lisuride (S)(−)], for which the Z-score is given as −0.7927.

As to `C[C@H](CCC(=O)O)[C@H]1CC[C@H]2[C@@H]3CC[C@@H]4C[C@H](O)CC[C@]4(C)[C@H]3CC[C@]12C` [Lithocholic acid], the Z-score turned out to be 0.8022.

Turning to `CN1[C@@H](C[C@@H](O)c2ccccc2)CCC[C@H]1C[C@H](O)c1ccccc1.Cl` [Lobelanidine hydrochloride], the Z-score is on record as −0.6306.

On to `CN1[C@@H](CC(=O)c2ccccc2)CCC[C@H]1C[C@H](O)c1ccccc1.Cl` [Lobeline alpha (−) hydrochoride], for which the Z-score is listed as −0.5438.

Take `CCn1cc(C(=O)O)c(=O)c2cc(F)c(N3CCNC(C)C3)c(F)c21` (stereo not drawn) [Lomefloxacin hydrochloride]: the Z-score is 0.00477.

As for `CN(C)C(=O)C(CCN1CCC(O)(c2ccc(Cl)cc2)CC1)(c1ccccc1)c1ccccc1` [Loperamide hydrochloride], the Z-score is listed as −0.1814.

Compound `N[C@@H](C(=O)N[C@@H]1C(=O)N2C(C(=O)O)=C(Cl)CC[C@H]12)c1ccccc1` [Loracarbef] displayed a Z-score of 0.6457.

For the origin of these results see patent US9393221B2, “Methods and compounds for reducing intracellular lipid storage” (THE GENERAL HOSPITAL CORPORATION, priority 2011, dated 2016).
